According to the NIST ThermoML archive (doi:10.1016/j.jct.2012.05.013):
± gives the expanded uncertainty stated by the source.

How the values were obtained:
[1] = Molar enthalpy of transition or fusion; details: Crystal; DSC
[2] = molar enthalpy of vaporization or sublimation; details: 298.15 K; Crystal; Static calorimetry
[3] = for vapor or sublimation pressure: Liquid, Closed cell (Static) method

CN(C)c1cccc2cccc(N(C)C)c12 [1,8-bis(dimethylamino)naphthalene]
Details | Molar enthalpy of transition or fusion [kcal/mol] | molar enthalpy [kcal/mol]
[1] | 4.18 ± 0.311 | –
[2] | – | 22.4 ± 0.55

[3]
Details | vapor or sublimation pressure [kPa]
322.96 K | 0.00189 ± 0.00013
327.93 K | 0.00285 ± 0.00016
332.9 K | 0.00428 ± 0.0002
337.88 K | 0.00638 ± 0.00028
342.85 K | 0.00921 ± 0.00038
347.82 K | 0.01325 ± 0.00052
352.78 K | 0.01867 ± 0.0006
357.73 K | 0.02622 ± 0.00072
362.69 K | 0.03643 ± 0.00088
367.65 K | 0.0494 ± 0.0011
372.6 K | 0.06696 ± 0.0014
377.55 K | 0.08952 ± 0.0017
382.51 K | 0.1184 ± 0.0022

Details | Triple point temperature [K]
[3], Crystal, DTA | 322.2 ± 1.8
